The record followed here is US7348427B2, “Antipathogenic benzamide compounds” (Genesoft Pharmaceuticals, Inc., priority 2001, dated 2008).

In one assay the test system is E. faecalis ATCC 29212. The experiment in a line: MIC, NCCLS broth microdilution assay. The format is cell-based, Enterococcus faecalis. The following applies: C = E. faecalis ATCC 29212. Put shortly: (§1)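 MICs were determined by NCCLS broth microdilution following documents M7-A4 and M11-A4 (1997).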
In assay [1] the test system is Enterococcus faecium (ATCC 51559, a vancomycin resistant strain (VRE)). The experiment in a line: MIC, NCCLS broth microdilution assay. The format is cell-based. As to conditions: D = E. faecium ATCC 51559. Put shortly:
(§2)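 Broth microdilution, NCCLS M7-A4/M11-A4/M27-T guidelines; readout = minimal inhibitory concentration. Candida: Manual of Clinical Microbiology method.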

For assay [2], the system named is Bacillus cereus (ATCC 11778). The assay can be described thus: MIC, NCCLS broth microdilution assay. Format: cell-based. As to conditions: A = B. cereus ATCC 11778. Put shortly: as §2
Assay [3] concerns Staphylococcus epidermidis (ATCC 12228). The experiment in a line: MIC, NCCLS broth microdilution assay. The format is cell-based. The following applies: G = S. epidermidis ATCC 12228. Put shortly: as §2
Assay [4] concerns Staphylococcus aureus (ATCC 27660, a methicillin resistant strain (MRSA)). The experiment in a line: MIC, NCCLS broth microdilution assay. The format is cell-based. The following applies: F = S. aureus ATCC 27660. The method, boiled down:
as §2

Assay [5] deals with Staphylococcus aureus (ATCC 13709, a methicillin sensitive strain (MSSA)). The assay can be described thus: MIC, NCCLS broth microdilution assay. Format: cell-based. As to conditions: E = S. aureus ATCC 13709. Put shortly:
as §2

The test system of assay [6] is Streptococcus pneumoniae (ATCC 51422, a penicillin resistant strain (PRSP)). The assay can be described thus: MIC, NCCLS broth microdilution assay. The following applies: I = S. pneumoniae ATCC 51422. The format is cell-based. The method, boiled down: as §2
In assay [7] the test system is Candida albicans (ATCC 38247). The assay can be described thus: Antifungal MIC assay. The format is cell-based. As to conditions: B = C. albicans ATCC 38247. Put shortly:
as §2

In the next assay the test system is S. pneumoniae ATCC 49619. The experiment in a line: MIC, NCCLS broth microdilution assay. Format: cell-based, Streptococcus pneumoniae. The following applies: H = S. pneumoniae ATCC 49619. The method, boiled down:
as §1

For `Cn1cc(NC(=O)c2cc(NC(=O)c3cc(NC(=O)c4ccc(F)cc4F)cn3C)cn2C)cc1C(=O)NCCc1cccnc1` [Compound B-24], the “Minimum Inhibitory Concentration (MIC)” value (with E. faecalis ATCC 29212; in assay [1]; in assay [2]; in [3]; in assay [4]; in assay [5]) was “+++ (+++ = MIC ≦ 4)” in each case. The results for the “Minimum Inhibitory Concentration (MIC)” value (in [6]; in assay [7]; in the assay on S. pneumoniae ATCC 49619) were “+++ (+++ = MIC ≦ 4)”, over 32 µg/mL and “+++ (+++ = MIC ≦ 4)”, respectively.

Take `Cn1cc(NC(=O)c2ccc(F)cc2F)cc1C(=O)Nc1cc(C(=O)Nc2cc(C(=O)N3CCC(O)CC3)n(C)c2)n(C)c1` [Compound B-26]: the “Minimum Inhibitory Concentration (MIC)” value (with E. faecalis ATCC 29212; in assay [1]; in assay [2]; in assay [3]; in assay [4]; in [5]) was over 32 µg/mL each time. Further, the “Minimum Inhibitory Concentration (MIC)” value (in assay [6]; in assay [7]; in the assay on S. pneumoniae ATCC 49619) was over 32 µg/mL in each case.

Regarding `Cn1cc(NC(=O)c2cc(NC(=O)c3cc(NC(=O)c4ccc(F)cc4F)cn3C)cn2C)cc1C(=O)NCCN1CCC(F)(F)CC1` [Compound B-27], the “Minimum Inhibitory Concentration (MIC)” value (in the assay on E. faecalis ATCC 29212; in assay [1]; in [2]; in assay [3]; in assay [4]; in assay [5]) was “+++ (+++ = MIC ≦ 4)” each time. Also, the “Minimum Inhibitory Concentration (MIC)” value in [6] was “+++ (+++ = MIC ≦ 4)”; in [7], over 32 µg/mL; in the assay with S. pneumoniae ATCC 49619, “+++ (+++ = MIC ≦ 4)”.

On to `Cn1cc(NC(=O)c2cc(NC(=O)c3cc(NC(=O)c4ccccc4F)cn3C)cn2C)cc1C(=O)NCCN1CCSCC1` [Compound B-41], for which the “Minimum Inhibitory Concentration (MIC)” value (with E. faecalis ATCC 29212; in assay [1]; in assay [2]; in assay [3]; in assay [4]; in assay [5]) was “+++ (+++ = MIC ≦ 4)” in each case. Moreover, the results for the “Minimum Inhibitory Concentration (MIC)” value (in assay [6]; in assay [7]; in the assay on S. pneumoniae ATCC 49619) were “+++ (+++ = MIC ≦ 4)”, over 32 µg/mL and “+++ (+++ = MIC ≦ 4)”, respectively.

Turning to `Cn1cc(NC(=O)c2cc(NC(=O)c3ccc(Cl)cc3F)cn2C)cc1C(=O)NCCN1CCOCC1` [Compound B-48], the “Minimum Inhibitory Concentration (MIC)” value with E. faecalis ATCC 29212 is “+++ (+++ = MIC ≦ 4)”; in assay [1], “+++ (+++ = MIC ≦ 4)”; in [2], “+++ (+++ = MIC ≦ 4)”; in assay [3], “+++ (+++ = MIC ≦ 4)”; in [4] it was “++ (++ = 4 < MIC < 12)”; in assay [5] it was “+++ (+++ = MIC ≦ 4)”. The “Minimum Inhibitory Concentration (MIC)” value was “+++ (+++ = MIC ≦ 4)” in assay [6], over 32 µg/mL in assay [7] and “+++ (+++ = MIC ≦ 4)” with S. pneumoniae ATCC 49619.

On to `Cn1cc(NC(=O)c2cc(NC(=O)c3cc(NC(=O)c4ccc(Cl)cc4F)cn3C)cn2C)cc1C(=O)NCCN1CCSCC1` [Compound B-49], for which the “Minimum Inhibitory Concentration (MIC)” value (in the assay with E. faecalis ATCC 29212; in assay [1]; in assay [2]; in assay [3]; in [4]; in assay [5]) was “+++ (+++ = MIC ≦ 4)” in each case. The “Minimum Inhibitory Concentration (MIC)” value was “+++ (+++ = MIC ≦ 4)” in assay [6], over 32 µg/mL in assay [7] and “+++ (+++ = MIC ≦ 4)” with S. pneumoniae ATCC 49619.

Consider `Cn1cc(NC(=O)c2cc(NC(=O)c3cc(NC(=O)c4ccc(Cl)c(Cl)c4)cn3C)cn2C)cc1C(=O)NCCN1CCOCC1` [Compound B-53], for which the “Minimum Inhibitory Concentration (MIC)” value (with E. faecalis ATCC 29212; in assay [1]; in assay [2]; in [3]; in assay [4]; in assay [5]) was “+++ (+++ = MIC ≦ 4)” each time. Further, the “Minimum Inhibitory Concentration (MIC)” value in [6] is “+++ (+++ = MIC ≦ 4)”; in [7], over 32 µg/mL; in the assay on S. pneumoniae ATCC 49619 it was “+++ (+++ = MIC ≦ 4)”.

In the case of `Cn1cc(NC(=O)c2cc(NC(=O)c3cc(NC(=O)c4ccc(Cl)cc4)cn3C)cn2C)cc1C(=O)NCCN1CCSCC1` [Compound B-58], the “Minimum Inhibitory Concentration (MIC)” value was “+++ (+++ = MIC ≦ 4)” in the assay on E. faecalis ATCC 29212; “+ (+ = 12 ≦ MIC ≦ 32)” in assay [1]; “+++ (+++ = MIC ≦ 4)” in [2]; “++ (++ = 4 < MIC < 12)” in assay [3]; “+++ (+++ = MIC ≦ 4)” in assay [4]; “+++ (+++ = MIC ≦ 4)” in [5]. Also, the figures for the “Minimum Inhibitory Concentration (MIC)” value (in [6]; in [7]; in the assay with S. pneumoniae ATCC 49619) were “+++ (+++ = MIC ≦ 4)”, over 32 µg/mL and “+++ (+++ = MIC ≦ 4)”, respectively.

Turning to `Cn1cc(NC(=O)c2cc(NC(=O)c3cc(NC(=O)c4ccc(Cl)cc4NCCN4CCCCC4)cn3C)cn2C)cc1C(=O)NCCN1CCCCC1` [Compound B-64], the “Minimum Inhibitory Concentration (MIC)” value (in the assay with E. faecalis ATCC 29212; in [1]; in assay [2]; in assay [3]; in [4]; in [5]) was “+++ (+++ = MIC ≦ 4)” each time. In addition, the “Minimum Inhibitory Concentration (MIC)” value (in [6]; in [7]; in the assay with S. pneumoniae ATCC 49619) was “+++ (+++ = MIC ≦ 4)” throughout.

On to `Cn1cc(NC(=O)c2cc(NC(=O)c3cc(NC(=O)c4ccc(C#N)cc4)cn3C)cn2C)cc1C(=O)NCCN1CCSCC1` [Compound B-68], for which the “Minimum Inhibitory Concentration (MIC)” value (in the assay on E. faecalis ATCC 29212; in assay [1]; in assay [2]; in [3]; in [4]; in assay [5]) was “+++ (+++ = MIC ≦ 4)” in each case. Also, the “Minimum Inhibitory Concentration (MIC)” value was “+++ (+++ = MIC ≦ 4)” in [6], over 32 µg/mL in assay [7] and “+++ (+++ = MIC ≦ 4)” with S. pneumoniae ATCC 49619.

Take `Cn1cc(NC(=O)c2cc(NC(=O)c3ccc(Cl)cc3F)c[nH]2)cc1C(=O)Nc1cc(C(=O)NCCN2CCCCC2)n(CCCO)c1` [Compound C-9]: the “Minimum Inhibitory Concentration (MIC)” value (in the assay on E. faecalis ATCC 29212; in assay [1]; in assay [2]; in assay [3]; in assay [4]; in [5]) was “+++ (+++ = MIC ≦ 4)” in each case. Besides, the “Minimum Inhibitory Concentration (MIC)” value (in assay [6]; in assay [7]; with S. pneumoniae ATCC 49619) was “+++ (+++ = MIC ≦ 4)” throughout.

In the case of `CN(C)CCCn1cc(NC(=O)c2cc(NC(=O)c3cc(NC(=O)c4ccc(F)cc4F)cn3C)cn2C)cc1C(=O)NCCN1CCCCC1` [Compound D-2], the “Minimum Inhibitory Concentration (MIC)” value in the assay with E. faecalis ATCC 29212 is recorded as “+++ (+++ = MIC ≦ 4)”; in [1], “+++ (+++ = MIC ≦ 4)”; in assay [2], “+++ (+++ = MIC ≦ 4)”; in [3] it was “+++ (+++ = MIC ≦ 4)”; in assay [4], “+++ (+++ = MIC ≦ 4)”; in assay [5], “+ (+ = 12 ≦ MIC ≦ 32)”. Moreover, the results for the “Minimum Inhibitory Concentration (MIC)” value (in assay [6]; in [7]; with S. pneumoniae ATCC 49619) were “+++ (+++ = MIC ≦ 4)”, “+ (+ = 12 ≦ MIC ≦ 32)” and “+++ (+++ = MIC ≦ 4)”, respectively.
